Laboratory results from US20100317849A1, “Process For Producing Pure And Stable Form Of 2-Methyl-4-(4-Methyl-1-Piperazinyl) -10H-Thieno[2,3-B] [1,5] Benzodiazepine” (priority 2006, published 2010).
“Also recorded” adds a separate entry of the source.

What was measured:
[1] = Stability of Olanzapine Form I at stressed conditions (40° C./75% RH), HPLC purity, total impurity and colour (UV absorbance at 430 nm); type: physicochemical; settings: for Absorbance at 430 nm Log I/Io: colour; for Stability under stressed conditions: stressed conditions (40° C.)
Description: The colour of Olanzapine is determined by following method:
Olanzapine 50 mg was dissolved in 50 ml 0.1 N HCl in methanol, which was diluted to prepare 100 μgm/ml, 200 μgm/ml, 500 μgm/ml of Olanzapine solution. […] Calibration curve was plotted between absorbance and concentration.
% of Colour=Amount of colour from calibration curve×100/Weight of sample taken.

[2] = as above; type: physicochemical
[3] = cited from earlier work

Q: Which results are given for `Cc1cc2c(s1)Nc1ccccc1N=C2N1CCN(C)CC1` [Olanzapine Form I, 2-methyl-4-(4-methyl-1-piperazinyl)-10H-thieno[2,3-b][1,5]benzodiazepine]?
A: Absorbance at 430 nm Log I/Io ([1]; 60 DAYS/40° C./75% RH): 0.407; Absorbance at 430 nm Log I/Io ([1]; 120 DAYS/40° C./75% RH): 0.4034; Absorbance at 430 nm Log I/Io ([1]; 180 DAYS/40° C./75% RH): 0.4026; Absorbance at 430 nm Log I/Io ([1]; Initial): 0.4; Colour stability upon storage ([1]; high temperature (40° C.), high moisture or stress conditions): colour stable; also recorded: stable colour; Stability under stressed conditions ([1]; listed as Form I): highly stable; Stability under stressed conditions ([1]; listed as olanzapine): high stability; Impurity Profile Chromatographic purity % ([2]; 30 DAYS/40° C./75% RH): 99.94%; Impurity Profile Total Imp. % age ([2]; 30 DAYS/40° C./75% RH): 0.06 % age; Absorbance at 430 nm Log I/Io ([2]; 30 DAYS/40° C./75% RH, colour): 0.402; Impurity Profile Chromatographic purity % ([2]; 60 DAYS/40° C./75% RH): 99.96%; Impurity Profile Total Imp. % age ([2]; 60 DAYS/40° C./75% RH): 0.04 % age; Impurity Profile Chromatographic purity % ([2]; 120 DAYS/40° C./75% RH): 99.95%; Impurity Profile Total Imp. % age ([2]; 120 DAYS/40° C./75% RH): 0.05 % age; Impurity Profile Chromatographic purity % ([2]; 180 DAYS/40° C./75% RH): 99.93%; Impurity Profile Total Imp. % age ([2]; 180 DAYS/40° C./75% RH): 0.07 % age; Impurity Profile Chromatographic purity % ([2]; Initial): 99.97%; Impurity Profile Total Imp. % age ([2]; Initial): 0.03 % age; Stability / colour on standing ([3]; Form I crystallized from acetonitrile per U.S. Pat. No. 5,229,382, on standing): metastable and changes its color on standing; Stability at room temperature ([3]; Form I prepared from alcoholic solvent, U.S. Pat. No. 6,906,062, room temperature): stable form at room temperature
